The target of this test is T1, human leukocytic elastase (HLE) (Homo sapiens, UniProt P08246).
T1 sequence (P08246 30-267): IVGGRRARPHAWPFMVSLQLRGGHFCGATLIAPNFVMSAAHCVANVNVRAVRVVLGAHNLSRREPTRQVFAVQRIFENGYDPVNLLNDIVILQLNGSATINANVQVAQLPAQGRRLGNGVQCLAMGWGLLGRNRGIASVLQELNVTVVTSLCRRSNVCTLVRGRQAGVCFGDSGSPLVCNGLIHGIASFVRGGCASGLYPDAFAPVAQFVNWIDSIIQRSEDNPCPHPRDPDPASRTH
The experiment in a line: Inhibition of human leukocytic elastase, kinetics of p-nitroaniline release at 410 nm. Format: biochemical. The conditions noted are these: read-out: percentage of inhibition of the anti-elastase activity after 10 min. The procedure: A test to ascertain the activity of a polar lipid mixture in accordance with the invention on the inhibition of a specific enzyme, human leukocytic elastase (HLE), was carried out at the Connective Tissue Laboratory of the CNRS at Cretail (France). HLE is able to destroy elastin and therefore cause cell aging. HLE also detrimentally effects the arterial walls.
The activity of the mixture in accordance with the invention was compared with that of oleic acid, the reference substance.
This test measures the inhibition of the enzymatic activity by different preparations tested by following the kinetics at 410 nm of the degradation of a substrate, S, corresponding essentially to elastin: Me-O-Suc-Ala2 -Pro-Val-pNa(N-Methoxy-succinyl-Ala-Ala-Pro-Val-p-Nitroanilide). In this test, changes in the concentration of p-Nitroaniline, released due to the effect of the activity of HLE on the substrate, S, is measured over time.
In order to carry out these tests:
either 0.1M Tris-Cl+0.01% Triton X-100 at pH 8
was used as the reaction buffer, B. […]
Spectrophotometer readings were taken at 410 nm relative to the p-Nitroaniline concentration and the results obtained were then transferred to Curves 1 to 5, which correspond to the cell samples of the same numbering. […]
On each of these curves, the time in min was recorded on the abscissa and the optical deviation, OD, read at 410 nm, was recorded on the ordinate. […]

One may read the inhibition as how much of the control response was suppressed. Regarding `CCCCCCCC/C=C\CCCCCCCC(=O)O` [Reference oleic acid, oleic acid], the inhibition at 0.1 µg/mL (oleic acid at 0.1 μg/ml) amounted to 36%. In addition, for the setting “oleic acid at 1.0 μg/ml”, the inhibition at 1 µg/mL came out at 84%.

Values taken from US5817646A, “Polar lipid composition of plant origin” (Laboratoires Inocosm, priority 1991, dated 1998).
